How the values were obtained:
[1] = Activation of PPARgamma L469A mutant-mediated transcriptional activity assessed as Gal4 reporter activity
[2] = Activation of PPARgamma L465A mutant-mediated transcriptional activity assessed as Gal4 reporter activity
[3] = Activation of PPARgamma Q286G mutant-mediated transcriptional activity assessed as Gal4 reporter activity
[4] = Activation of PPARgamma I472A mutant-mediated transcriptional activity assessed as Gal4 reporter activity

For `CN(CCOc1ccc(CC2SC(=O)NC2=O)cc1)c1ccccn1` (centres undefined) [ROSIGLITAZONE], the EC50 [1] was greater than 10 µM, the EC50 [2] was greater than 10 µM and the EC50 [3] was 0.207 µM. It also gave an EC50 [4] greater than 10 µM.

Source: ChEMBL document CHEMBL1156456, “Insights into the mechanism of partial agonism: crystal structures of the peroxisome proliferator-activated receptor gamma ligand-binding domain in the complex with two enantiomeric ligands” (J Biol Chem, 2007)
